For four molecules, EC50 results are on record in patent US20230295201A1 (Gilead Sciences, Inc., priority 2020, published 2023).

pEC50: −log10 of the molar value. Where two headings read alike, the source gives them in different places.

Holding throughout (format): cell-based
Experiment [1] concerns Dengue 2, New Guinea strain (NGC). Kind of experiment: DENV-2 moDC EC50 (qPCR in human monocyte-derived dendritic cells). The following applies: Dengue virus, DENV2, Dendritic cell; moDCs, 48 hours. In outline: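 Human moDCs (CD14+ monocytes, GM-CSF/IL-4, day 7) were infected 2 h with Vero-derived DENV-2 NGC at MOI=0.1, then plated in 10% serum with graded compound doses (0.25% DMSO) for 48 h. Viral RNA was quantified by duplex TaqMan qPCR against GAPDH; EC50 normalized to positive and no-compound controls.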
Background: Quantitative PCR measures a nucleic acid by following its amplification.

For experiment [2], the system named is HCV replicon 2A. As to the kind of experiment: HCV Rep 2A EC50 (replicon luciferase). The settings on record: Hepatitis C virus, 72 h. In outline:
(§1)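 HCV replicon cells (2000/well) exposed 3 days at 37 °C to ten-point 1:3 compound dilutions in quadruplicate, 0.44% final DMSO. Same wells multiplexed: cytotoxicity first by calcein AM (400 nM, 30 min, fluorescence 490/520 nm), then antireplicon EC50 by Dual-Glo luciferase luminescence.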

Experiment [3] relates to HRV10. Kind of experiment: HRV10 HELA EC50.
Experiment [4] has as its system HRV99. Kind of experiment: HRV99 EC50.
The subject of experiment [5] is HCV replicon 1B. As to the kind of experiment: HCV Rep 1B EC50 (replicon luciferase). The following applies: Hepatitis C virus, 72 h. The method, boiled down:
as §1
(In antiviral work, replicon cells carry a viral genome segment that copies itself.)

Experiment [6] relates to HRV14. Kind of experiment: HRV14 HELA EC50 (cytopathic effect in H1-HeLa cells). The following applies: 96 h, read-out: HRV14 HELA EC50. How it is done: H1-HeLa cells, cultured in complete RPMI 1640 medium containing 10% heat-inactivated FBS and 1% Penicillin/Streptomycin, were seeded in 96 well plates at 5000 cells/well one day prior to compound dosing and infection. The antiviral activity of each compound was measured in triplicate. Compounds were added directly to the cell cultures in serial 3-fold dilutions using the HP300 digital dispenser (Hewlett Packard, Palo Alto, CA) immediately prior to infection. The plates were transferred to BSL-2 containment and 100 μL of 1/4000 dilution of HRV14 virus stock was added to each well containing cells and serially diluted compounds. Each plate included 6 wells of infected untreated cells and 6 wells of cells containing 5 μM Rupintrivir that served as 0% and 100% virus inhibition control, respectively. Following the infection, test plates were incubated for 96 h in a tissue culture incubator set to 37° C./5% CO2. Following incubation, the H1-HeLa cells were removed from incubation and allowed to equilibrate to 25° C. Cell viability was determined by removing 100 μL of culture medium and adding 100 μL of Cell-Titer Glo viability reagent. The mixtures were incubated on a shaker for 10 minutes at 25° C., and the luminescence signal was quantified on an Envision luminescence plate reader.
On the technique in general: Protection from cytopathic effect is a common read-out in antiviral testing.

Experiment [7] concerns Dengue serotype 2 New Guinea C (NGC) strain. As to the kind of experiment: DENV-2 Huh-7 EC50 (qPCR in Huh7 cells). The following applies: Dengue virus, DENV2, Huh-7, 48 h. The method, boiled down:
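Huh7 cells infected 2 h at 37 °C with DENV-2 NGC at MOI 0.1, then plated with graded compound doses (0.25% DMSO) in triplicate. After 48 h, viral RNA quantified by duplex TaqMan RT-qPCR against GAPDH; EC50 normalized to positive control and no-compound wells.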

[8] abbreviates: read-out: HCV Rep 2A EC50, replicon cells, 3 days.
Setting [9] is: read-out: HCV Rep 1B EC50, replicon cells, 3 days.

With `CCCCCCCCCCCCCCCCCCOC[C@H](COP(=O)(O)OC[C@@]1(C#N)O[C@@H](c2ccc3c(N)ncnn23)[C@H](O)[C@@H]1O)OCc1ccccc1` [Example 96, ((2R,3S,4R,5S)-5-(4-aminopyrrolo[2,1-f][1,2,4]triazin-7-yl)-2-cyano-3,4-dihydroxytetrahydrofuran-2-yl)methyl ((R)-2-(benzyloxy)-3-(octadecyloxy)propyl) hydrogen phosphate], the pEC50 (in general, the negative decadic logarithm of the EC50, by convention in mol/L) is under 4.60 in experiment [1]; 4.33 in experiment [2] (replicon cells, 3 days, read-out: HCV Rep 2A EC50); 5.63 in experiment [3]; 4.19 in experiment [4]; 4.51 in experiment [5] (replicon cells, 3 days, read-out: HCV Rep 1B EC50); 4.92 in experiment [6] (H1-HeLa cells).

Turning to `CCC(CC)COC(=O)[C@H](CC)NP(=O)(OC[C@@]1(C#N)O[C@@H](c2ccc3c(N)ncnn23)[C@H](O)[C@@H]1O)Oc1ccccc1` (mixture of isomers) [Example 88, (2S)-2-ethylbutyl 2-(((((2R,3S,4R,5S)-5-(4-aminopyrrolo[2,1-f][1,2,4]triazin-7-yl)-2-cyano-3,4-dihydroxytetrahydrofuran-2-yl)methoxy)(phenoxy)phosphoryl)amino)butanoate], the pEC50 in experiment [7] was under 4.60; in experiment [2] (setting [8]) it was 4.56; in experiment [3] it was 6.22; in experiment [4], 5.34; in experiment [5] (setting [9]) it was 4.63; in experiment [6], 5.77.

`C[C@H](NP(=O)(OC[C@@]1(C#N)O[C@@H](c2ccc3c(N)ncnn23)[C@H](O)[C@@H]1O)Oc1ccccc1)C(=O)OC1CCCCC1` (stereo partly drawn) [Example 4, (2S)-cyclohexyl 2-(((((2R,3S,4R,5S)-5-(4-aminopyrrolo[2,1-f][1,2,4]triazin-7-yl)-2-cyano-3,4-dihydroxytetrahydrofuran-2-yl)methoxy)(phenoxy)phosphoryl)amino)propanoate]: the pEC50 in experiment [2] (setting [8]) was 5.04; in experiment [3], 6.84; in experiment [4], 5.96; in experiment [5] (setting [9]), 4.28; in experiment [6] it was 6.35.

For `C[C@H](NP(=O)(OC[C@@]1(C#N)O[C@@H](c2ccc3c(N)ncnn23)[C@H](O)[C@@H]1O)Oc1ccccc1)C(=O)OCC(C)(C)C` (stereo partly drawn) [Example 92, (2S)-neopentyl 2-(((((2R,3S,4R,5S)-5-(4-aminopyrrolo[2,1-f][1,2,4]triazin-7-yl)-2-cyano-3,4-dihydroxytetrahydrofuran-2-yl)methoxy)(phenoxy)phosphoryl)amino)propanoate], the negative logarithm of the EC50 (pEC50) is 5.54 in experiment [2] (setting [8]); 7.09 in experiment [3]; 6.19 in experiment [4]; 4.78 in experiment [5] (setting [9]); 6.62 in experiment [6].
